The text below walks through data of patent US8450308B2 (Vitae Pharmaceuticals, Inc., priority 2008, dated 2013).

The target in the test is T1, truncated human beta-secretase (residues 1-458, His6-tagged at the C-terminus) (Homo sapiens, UniProt P56817).
T1 construct: truncated human beta-secretase (residues 1-458, His6-tagged at the C-terminus); His6 (C); made in house; host or cells: insect cells D. melanogaster S2 (baculovirus expression system (so in the source))
Put plainly: BACE fluorescence quench assay. Type of test: biochemical. The protocol: The assay was performed at room temperature in 96-well white opaque Optiplates aque Optiplates (PerkinElmer, Waltham, Mass.) in a total volume of 200 μl of the incubation mixture containing 50 mM sodium acetate buffer, pH 4.5, 0.4 μM FRET substrate, 2.4 nM enzyme, 5% DMSO, and 0.05% Brij-35. The tested compounds were serially diluted in DMSO and pre-incubated with the substrate. The reaction was started by addition of enzyme, and the progress of the reaction was followed by measuring fluorescence with an excitation wavelength of 480 nm and an emission wavelength of 520 nm. Ten measurements were taken every 5-10 min, and the intensity of fluorescence was regressed against time in order to derive velocities of reaction in all 96 wells. […] IC50 values were calculated by fitting percent inhibition vs. inhibitor concentration into a four-parametric logistic model using XLFit software (IDBS, Guildford, UK).

Where [1] appears, read: in vitro enzyme activity, BACE fluorescence assay, pH 4.5, read-out: IC50.

Like-named read-outs stand apart in the source and are kept apart here.

T1 sequence (P56817 22-458): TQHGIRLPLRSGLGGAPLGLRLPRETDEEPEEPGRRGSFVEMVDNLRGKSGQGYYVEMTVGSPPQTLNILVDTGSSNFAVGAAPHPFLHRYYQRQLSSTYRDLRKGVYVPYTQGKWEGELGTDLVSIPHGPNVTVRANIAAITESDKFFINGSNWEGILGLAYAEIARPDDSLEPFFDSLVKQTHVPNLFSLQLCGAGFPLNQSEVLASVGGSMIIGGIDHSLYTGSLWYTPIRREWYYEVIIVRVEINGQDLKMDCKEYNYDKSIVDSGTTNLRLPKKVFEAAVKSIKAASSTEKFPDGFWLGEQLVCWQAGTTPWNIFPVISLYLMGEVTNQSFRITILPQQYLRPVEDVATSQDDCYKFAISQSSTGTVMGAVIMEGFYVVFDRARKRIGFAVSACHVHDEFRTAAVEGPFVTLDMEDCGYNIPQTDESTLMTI

`CC(C)=CC(CCO)[C@@H]1C[C@@]2(N=C(N)N(C)O2)c2cc(-c3cccc(C(F)(F)F)c3)ccc2O1` (stereo partly shown) [Compound 450]: the concentration for half-maximal inhibition (IC50) under setting [1] fell in the range of 10 to 50 µM.

For the compound `CN1OC2(CC3(CCCOCC3)Oc3ccc(-c4cccc(C#N)c4)cc32)N=C1N` (stereo not shown) [Compound 116], the 50% inhibitory concentration (IC50) under setting [1] lay in the range of 1 to 5 µM.

On to `CN1OC2(C[C@]3(CCCC4CCCCC43)Oc3ccc(-c4cccc(C#N)c4)cc32)N=C1N` (stereo partly shown) [Compound 394], for which the IC50 under setting [1] fell in the range of 1 to 5 µM.

Regarding `CN1C(=O)C2(CC(c3ccccc3)Oc3ccc(-c4ccc(CNS(C)(=O)=O)cc4)cc32)N=C1N` (stereo not shown) [Compound 62, N-(4-(2′-amino-1′-methyl-5′-oxo-2-phenyl-1′,5′-dihydrospiro[chroman-4,4′-imidazole]-6-yl)benzyl)methanesulfonamide], the IC50 was in the range of 10 to 50 µM.

Regarding `CN1C(=O)[C@@]2(C[C@]3(CCCOC3)Oc3ccc(-c4cc(CO)ccc4F)cc32)N=C1N` [Compound 376], the IC50 under setting [1] is 1 to 5 µM.

Consider `CN1C(=O)C2(CC(c3ccccc3)Oc3ccc(-c4ccc(CO)cc4)cc32)N=C1N` (stereo not shown) [Compound 26, 2′-amino-6-(4-(hydroxymethyl)phenyl)-1′-methyl-2-phenylspiro[chroman-4,4′-imidazol]-5′(1′H)-one], for which the IC50 lay within 1 to 5 µM.

In the case of `CC(C)=CC(CC(C)(C)O)C1CC2(N=C(N)N(C)O2)c2cc(-c3cccc(C#N)c3)ccc2O1` (stereo not shown) [Compound 401], the IC50 under setting [1] lay in the range of 1 to 5 µM.

For the compound `CN1C(=O)C2(CC3(CCCc4ccccc4C3)Oc3ccc(Br)cc32)N=C1N` (stereo not shown) [Compound 381], under setting [1], the IC50 was in the range of 1 to 5 µM.

As to `CN1C(=O)C2(CC(C3CCOC(C)(C)C3)Oc3ccc(-c4ccc(F)c(F)c4)cc32)N=C1N` (stereo not shown) [Compound 431], under setting [1], the IC50 lay within 1 to 5 µM.

With `CN1OC2(CC3(CCCOC3)Oc3ccc(-c4cccc(Cl)c4)cc32)N=C1N` (stereo not shown) [Compound 110], the IC50 under setting [1] fell in the range of 0.1 to 0.5 µM.

For the compound `CSc1cccc(-c2ccc3c(c2)[C@]2(C[C@@]4(CCCOC4)O3)N=C(N)N(C)C2=O)c1` [Compound 405], under setting [1], the IC50 fell in the range of 1 to 5 µM.

For `CC(C)=C[C@H](CCO)[C@@H]1C[C@@]2(N=C(N)N(C)O2)c2cc(-c3cc(F)cc(F)c3)ccc2O1` [Compound 419], the IC50 under setting [1] lay in the range of 1 to 5 µM.

As for `CN1C(=O)C2(CC(C3CCOC(C)(C)C3)Oc3ccc(-c4cc(F)cc(F)c4)cc32)N=C1N` (stereo not shown) [Compound 372], the 50% inhibitory concentration (IC50) under setting [1] fell in the range of 0.5 to 1 µM.

With `Cc1ccc(C)c(-c2ccc3c(c2)C2(CC4(CCCOC4)O3)N=C(N)N(C)C2=O)c1` (stereo not shown) [Compound 364], under setting [1], the IC50 lay in the range of 0.5 to 1 µM.

For `CN1C(=O)C2(CC3(CCCCC3)Oc3ccc(-c4ccncc4)cc32)N=C1N` (stereo not shown) [Compound 84], the concentration for half-maximal inhibition (IC50) under setting [1] lay in the range of 10 to 50 µM.

Take `CC(C)=CC(CCO)[C@@H]1C[C@@]2(N=C(N)N(C)O2)c2cc(-c3cc(F)cc(F)c3F)ccc2O1` (stereo partly shown) [Compound 392]: the IC50 under setting [1] is 1 to 5 µM.

In the case of `CN1OC2(CC3(CCCOC3)Oc3ccc(C#CC4CC4)cc32)N=C1N` (stereo not shown) [Compound 407, 2″-methyl-6-(cyclopropylethynyl)-2″H-spiro[spiro[chroman-2,1′-(3-oxacyclohexane)]-4,5′-[1,2,4]oxadiazol]-3″-amine], the half-inhibitory concentration (IC50) under setting [1] lay in the range of 1 to 5 µM.

In the case of `CN1OC2(CC(c3ccc(OC(F)(F)F)cc3)Oc3ccc(-c4cccc(C#N)c4)cc32)N=C1N` (stereo not shown) [Compound 107, 3-(3′-amino-2′-methyl-2-(4-(trifluoromethoxy)phenyl)-2′H-spiro[chroman-4,5′-[1,2,4]oxadiazole]-6-yl)benzonitrile], under setting [1], the IC50 fell in the range of 10 to 50 µM.

On to `CN1C(=O)C2(CC3(CCOCC3)Oc3ccc(-c4cccc(C#N)c4)cc32)N=C1N` (stereo not shown) [Compound 77], for which the IC50 under setting [1] lay in the range of 0.1 to 0.5 µM.

Turning to `CN1OC2(CCOc3ccc(-c4cccc(C#N)c4)cc32)N=C1N` (stereo not shown) [Compound 97, 3-(3′-Amino-2′-methyl-2′H-spiro[chroman-4,5′-[1,2,4]oxadiazole]-6-yl)benzonitrile], the IC50 under setting [1] lay within 1 to 5 µM.

With `CN1C(=O)C2(CC3(CCCCCC3)Oc3ccc(-c4cccc(C#N)c4)cc32)N=C1N` (stereo not shown) [Compound 78], the IC50 under setting [1] fell in the range of 0.5 to 1 µM.

With `COc1cccc(-c2ccc3c(c2)C2(CC(C4CCCOC4)O3)N=C(N)N(C)O2)c1F` (stereo not shown) [Compound 92], the IC50 under setting [1] lay in the range of 0.1 to 0.5 µM.

On to `CN1C(=O)C2(C[C@H]([C@@H]3CCOC(C)(C)C3)Oc3ccc(-c4cccc(C#N)c4)cc32)N=C1N` (stereo partly shown) [Compound 453], for which the IC50 under setting [1] lay within 10 to 50 µM.

As for `CC(C)=CC(CCO)C1CC2(N=C(N)N(C)O2)c2cc(-c3cc(F)cc(Cl)c3)ccc2O1` (stereo not shown) [Compound 404], the IC50 under setting [1] lay within 1 to 5 µM.

As to `CN1OC2(CC(C3CCOC(C)(C)C3)Oc3ccc(-c4cccc(Cl)n4)cc32)N=C1N` (stereo not shown) [Compound 393], the half-inhibitory concentration (IC50) under setting [1] lay in the range of 1 to 5 µM.

Turning to `CN1O[C@]2(C[C@@H](C[C@@H]3CCCO3)Oc3ccc(-c4cccc(C#N)c4)cc32)N=C1N` (stereo in doubt) [Compound 367, 3-(3′-amino-2′-methyl-2-((tetrahydrofuran-2-yl)methyl)-2′H-spiro[chroman-4,5′-[1,2,4]oxadiazole]-6-yl)benzonitrile], the IC50 under setting [1] was in the range of 0.5 to 1 µM.

As for `NC1=NC2(CC(c3ccccc3)Oc3ccc(Br)cc32)C(=O)N1CCC1CC1` (stereo not shown) [Compound 59, 2′-amino-6-bromo-1′-(2-cyclopropylethyl)-2-phenylspiro[chroman-4,4′-imidazol]-5′(1′H)-one], the IC50 under setting [1] lay in the range of 10 to 50 µM.

Turning to `CN1C(=O)C2(CC3(CCCOC3)Oc3ccc(-c4cc(CO)ccc4F)cc32)N=C1N` (stereo not shown) [Compound 395], the IC50 under setting [1] was in the range of 1 to 5 µM.

In the case of `COc1cccc(C2CC3(N=C(N)N(C)C3=O)c3cc(Br)ccc3O2)c1` (stereo not shown) [Compound 46, 2′-amino-6-bromo-2-(3-methoxyphenyl)-1′-methylspiro[chroman-4,4′-imidazol]-5′(1′H)-one], the IC50 under setting [1] lay in the range of 5 to 10 µM.

For the compound `CCCCNC(=O)c1cccc(-c2ccc3c(c2)[C@]2(C[C@@H](c4ccccc4)O3)N=C(N)N(C)C2=O)c1` [Compound 55b, 3-((2S,4S)-2′-amino-1′-methyl-5′-oxo-2-phenyl-1′,5′-dihydrospiro[chroman-4,4′-imidazole]-6-yl)-N-butylbenzamide], the IC50 under setting [1] was 10 to 50 µM.

In the case of `CN1OC2(CC3(CCCN(c4ncccn4)C3)Oc3ccc(-c4cccc(C#N)c4)cc32)N=C1N` (stereo not shown) [Compound 329], the IC50 under setting [1] fell in the range of 0.1 to 0.5 µM.

Consider `CC(C)C1CCC2(C1)CC1(N=C(N)N(C)O1)c1cc(-c3cccc(C#N)c3)ccc1O2` (stereo not shown) [Compound 121], for which, under setting [1], the IC50 was 1 to 5 µM.

In the case of `N#Cc1cccc(-c2ccc3c(c2)C2(CC(c4ccccc4)O3)N=C(N)N(CC3CCCCC3)C2=O)c1` (stereo not shown) [Compound 18, 3-(2′-amino-1′-(cyclohexylmethyl)-5′-oxo-2-phenyl-1′,5′-dihydrospiro[chroman-4,4′-imidazole]-6-yl)benzonitrile], the IC50 under setting [1] lay within 0.5 to 1 µM.

With `Cc1ccc(-c2ccc3c(c2)C2(CC4(CCCOC4)O3)N=C(N)N(C)C2=O)s1` (stereo not shown) [Compound 414], the IC50 under setting [1] lay within 1 to 5 µM.

For the compound `CN1C(=O)[C@@]2(C[C@@]3(CCCOC3)Oc3ccc(-c4cc(F)cc(F)c4F)cc32)N=C1N` [Compound 359], the half-maximal inhibitory concentration (IC50) under setting [1] is 0.5 to 1 µM.

For the compound `CN1O[C@@]2(C[C@@H]([C@@H]3CCOC(C)(C)C3)Oc3ccc(-c4cccc(C#N)c4)cc32)N=C1N` [Compound 285], under setting [1], the IC50 lay in the range of 0.1 to 0.5 µM.

As for `CN1OC2(CC(c3ccccc3)Oc3ccc(Oc4ccccc4)cc32)N=C1N` (stereo not shown) [Compound 108, 2′-methyl-6-phenoxy-2-phenyl-2′H-spiro[chroman-4,5′-[1,2,4]oxadiazol]-3′-amine], under setting [1], the 50% inhibitory concentration (IC50) lay in the range of 10 to 50 µM.
